Measured values: ChEMBL document CHEMBL1153762, “Novel, broad-spectrum anticonvulsants containing a sulfamide group: advancement of N-((benzo[b]thien-3-yl)methyl)sulfamide (JNJ-26990990) into human clinical studies” (J Med Chem, 2009)
The source made the active and inactive calls.

What was measured:
Mus musculus [1] = assay: Anticonvulsant activity against maximal electroshock-induced seizure in po dosed CF1 mouse after 1 hr; assay type: functional
Carbonic anhydrase 2 [2] = target: T1, Carbonic anhydrase 2 (Homo sapiens, UniProt P00918); assay: Inhibition of human carbonic anhydrase 2 at 100 uM by CO2 hydration assay
Carbonic anhydrase 2 [3] = target: T1, Carbonic anhydrase 2; assay: Inhibition of human carbonic anhydrase 2 by fluorimetric assay
Mus musculus [4] = assay: Anticonvulsant activity against maximal electroshock-induced seizure in CD1 mouse at 300 mg/kg, po after 0.5 hrs; assay type: functional, organism-based; set-up: dose 300 mg/kg
Mus musculus [5] = assay: Anticonvulsant activity against maximal electroshock-induced seizure in CD1 mouse at 100 mg/kg, po after 2 hrs; assay type: functional, organism-based; set-up: dose 100 mg/kg
Mus musculus [6] = assay: Anticonvulsant activity against maximal electroshock-induced seizure in CD1 mouse at 100 mg/kg, po after 0.5 hrs; assay type: functional, organism-based; set-up: dose 100 mg/kg
Mus musculus [7] = assay: Anticonvulsant activity against maximal electroshock-induced seizure in CD1 mouse at 300 mg/kg, po after 4 hrs; assay type: functional, organism-based; set-up: dose 300 mg/kg
Mus musculus [8] = assay: Anticonvulsant activity against maximal electroshock-induced seizure in po dosed CD1 mouse after 0.5 hrs; assay type: functional
[9] = target: Sodium channel protein type 2 subunit alpha (Rattus norvegicus) (UniProt P04775); assay: Inhibition of rat Nav1.2 channel expressed in chinese hamster CHL1610 cells at preconditioning pulse of -107 to -67 mV up to 300 uM after 2 to 3 mins by whole-cell patch-clamp technique; assay type: cell-based
Rattus norvegicus [10] = assay: Anticonvulsant activity against electric stimulation-induced pharmacoresistant limbic epilepsy in Sprague-Dawley rat kindling model assessed as reduction of seizure severity and excitability at > 26 mg/kg, ip administered 15 mins after last electric stimulation; assay type: functional, organism-based; set-up: dose 26 mg/kg; conditions: Limbic system
Rattus norvegicus [11] = assay: Anticonvulsant activity against electric stimulation-induced pharmacoresistant limbic epilepsy in ip dosed Sprague-Dawley rat kindling model assessed as reduction of seizure severity and excitability administered 15 mins after last electric stimulation measured after 15 mins to 1 hr; assay type: functional; conditions: Limbic system
[12] = target: Sodium channel protein type 2 subunit alpha (Rattus norvegicus, UniProt P04775); assay: Inhibition of rat Nav1.2 channel expressed in chinese hamster CHL1610 cells at preconditioning pulse of -67 mV after 2 to 3 mins by whole-cell patch-clamp technique; assay type: cell-based
Mus musculus [13] = assay: Anticonvulsant activity against picrotoxin-induced seizure in ip dosed CF1 mouse after 0.25 hrs; assay type: functional
Rattus norvegicus [14] = assay: Anticonvulsant activity against electric stimulation-induced pharmacoresistant limbic epilepsy in Sprague-Dawley rat kindling model assessed as reduction of seizure severity and excitability at > 300 mg/kg, ip administered 15 mins after last electric stimulation; assay type: functional, organism-based; set-up: dose 300 mg/kg; conditions: Limbic system
Carbonic anhydrase 2 [15] = target: T1, Carbonic anhydrase 2
Description: Inhibition of human carbonic anhydrase 2 by CO2 hydration assay

Mus musculus [16] = assay: Neurotoxicity in mouse assessed as motor impairment 400 mg/kg, ip by rotarod test; assay type: toxicity, organism-based; set-up: dose 400 mg/kg, route intraperitoneal; conditions: in vivo
Mus musculus [17] = assay: Anticonvulsant activity against bicuculline-induced seizure in ip dosed CF1 mouse after 0.25 hrs; assay type: functional
Mus musculus [18] = assay: Anticonvulsant activity against pentylenetetrazole-induced seizure in ip dosed CF1 mouse assessed as increase in seizure threshold for clonus at TD50 administered 15 mins before pentylenetetrazole infusion; assay type: functional, organism-based
Rattus norvegicus [19] = assay: Anticonvulsant activity against maximal electroshock-induced seizure in po dosed rat; assay type: functional
Mus musculus [20] = assay: Anticonvulsant activity against pentylenetetrazole-induced seizure in ip dosed CF1 mouse assessed as increase in seizure threshold for clonus at ED50 administered 15 mins before pentylenetetrazole infusion; assay type: functional, organism-based
Mus musculus [21] = assay: Anticonvulsant activity against pentylenetetrazole-induced seizure in CF1 mouse assessed as increase in seizure threshold for clonus at 107 mg/kg, ip administered 15 mins before pentylenetetrazole infusion; assay type: functional; conditions: route intraperitoneal
Mus musculus [22] = assay: Anticonvulsant activity against pentylenetetrazole-induced seizure in ip dosed CF1 mouse assessed as increase in threshold of seizure twitch at TD50 administered 15 mins before pentylenetetrazole infusion; assay type: functional, organism-based
Mus musculus [23] = assay: Anticonvulsant activity against audiogenic seizures in ip dosed AGS mouse assessed as inhibition of hindlimb tonic extension administered 1 hr prior to 11 kHz sound induction; assay type: functional
Mus musculus [24] = assay: Anticonvulsant activity against pentylenetetrazole-induced seizure in CF1 mouse assessed as increase in threshold of seizure twitch at 107 mg/kg, ip administered 15 mins before pentylenetetrazole infusion; assay type: functional; conditions: route intraperitoneal
Mus musculus [25] = assay: Anticonvulsant activity against maximal electroshock-induced seizure in CD1 mouse at 300 mg/kg, po after 2 hrs; assay type: functional, organism-based; set-up: dose 300 mg/kg
Mus musculus [26] = assay: Anticonvulsant activity against pentylenetetrazole-induced seizure in ip CF1 mouse assessed as increase in threshold of seizure twitch at ED50 administered 15 mins before pentylenetetrazole infusion; assay type: functional, organism-based
Rattus norvegicus [27] = assay: Anticonvulsant activity against maximal electroshock-induced seizure in po dosed rat after 4 hrs; assay type: functional
Rattus norvegicus [28] = assay: Anticonvulsant activity against maximal electroshock-induced seizure in po dosed Sprague-Dawley rat after 2 hrs; assay type: functional
Mus musculus [29] = assay: Anticonvulsant activity against pentylenetetrazole-induced seizure in ip dosed CF1 mouse after 0.25 hrs; assay type: functional
Mus musculus [30] = assay: Anticonvulsant activity against maximal electroshock-induced seizure in CD1 mouse at 100 to 300 mg/kg, po after 0.5 to 8 hrs; assay type: functional, organism-based
[31] = Mus musculus, CF1, po, 1 h, read-out: ED50

Sodium channel protein type 2 subunit alpha, sequence (P04775 whole entry): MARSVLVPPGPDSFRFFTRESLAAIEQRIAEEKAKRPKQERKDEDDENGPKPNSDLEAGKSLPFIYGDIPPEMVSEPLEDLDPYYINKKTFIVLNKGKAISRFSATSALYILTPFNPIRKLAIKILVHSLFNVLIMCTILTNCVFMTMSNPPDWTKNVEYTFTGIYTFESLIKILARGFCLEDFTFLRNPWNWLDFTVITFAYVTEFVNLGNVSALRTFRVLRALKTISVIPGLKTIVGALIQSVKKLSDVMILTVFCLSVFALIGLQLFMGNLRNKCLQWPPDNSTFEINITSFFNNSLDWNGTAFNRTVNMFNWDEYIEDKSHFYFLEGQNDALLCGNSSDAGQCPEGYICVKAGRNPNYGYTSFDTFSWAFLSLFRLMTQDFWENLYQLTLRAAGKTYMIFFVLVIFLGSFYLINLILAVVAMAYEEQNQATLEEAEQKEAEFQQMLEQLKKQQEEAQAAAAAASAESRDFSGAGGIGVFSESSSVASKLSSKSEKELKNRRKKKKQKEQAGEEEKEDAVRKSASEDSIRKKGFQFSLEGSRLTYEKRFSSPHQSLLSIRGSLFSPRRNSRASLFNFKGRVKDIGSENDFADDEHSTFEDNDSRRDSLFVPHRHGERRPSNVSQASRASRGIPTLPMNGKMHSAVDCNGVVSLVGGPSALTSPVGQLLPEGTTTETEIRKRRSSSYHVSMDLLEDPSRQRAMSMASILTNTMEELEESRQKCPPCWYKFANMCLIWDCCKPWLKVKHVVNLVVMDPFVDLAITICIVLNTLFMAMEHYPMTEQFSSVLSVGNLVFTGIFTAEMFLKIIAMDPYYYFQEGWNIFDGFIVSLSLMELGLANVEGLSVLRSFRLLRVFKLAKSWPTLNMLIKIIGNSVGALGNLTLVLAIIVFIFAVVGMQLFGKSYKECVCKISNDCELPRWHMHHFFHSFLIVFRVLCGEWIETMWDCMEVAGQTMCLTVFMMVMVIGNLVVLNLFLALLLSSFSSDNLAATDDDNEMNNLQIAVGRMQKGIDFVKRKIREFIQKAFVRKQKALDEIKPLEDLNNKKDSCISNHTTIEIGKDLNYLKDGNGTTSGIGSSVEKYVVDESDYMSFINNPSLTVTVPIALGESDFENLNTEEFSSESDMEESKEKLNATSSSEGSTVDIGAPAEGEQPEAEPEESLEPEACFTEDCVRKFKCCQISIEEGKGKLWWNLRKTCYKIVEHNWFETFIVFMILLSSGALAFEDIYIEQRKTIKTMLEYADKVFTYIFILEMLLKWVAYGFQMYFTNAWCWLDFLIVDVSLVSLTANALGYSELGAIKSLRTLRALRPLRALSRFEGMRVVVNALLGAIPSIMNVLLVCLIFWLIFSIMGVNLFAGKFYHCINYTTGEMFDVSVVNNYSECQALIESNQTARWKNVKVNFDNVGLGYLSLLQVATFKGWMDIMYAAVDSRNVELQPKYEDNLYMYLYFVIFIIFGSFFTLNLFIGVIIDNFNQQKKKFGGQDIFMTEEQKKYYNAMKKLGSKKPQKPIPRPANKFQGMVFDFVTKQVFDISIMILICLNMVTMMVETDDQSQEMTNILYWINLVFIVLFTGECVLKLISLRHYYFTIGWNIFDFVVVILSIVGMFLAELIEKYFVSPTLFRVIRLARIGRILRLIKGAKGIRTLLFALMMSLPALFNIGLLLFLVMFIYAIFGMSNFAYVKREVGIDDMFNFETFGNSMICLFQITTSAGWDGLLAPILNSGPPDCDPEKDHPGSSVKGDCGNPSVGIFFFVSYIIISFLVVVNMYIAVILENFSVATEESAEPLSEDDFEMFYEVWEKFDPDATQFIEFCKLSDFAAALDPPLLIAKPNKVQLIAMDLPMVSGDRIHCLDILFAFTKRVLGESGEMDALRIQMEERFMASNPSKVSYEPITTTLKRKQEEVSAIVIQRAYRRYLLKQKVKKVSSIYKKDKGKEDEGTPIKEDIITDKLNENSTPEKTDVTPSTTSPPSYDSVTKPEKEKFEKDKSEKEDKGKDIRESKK
Sodium channel protein type 2 subunit alpha (Rattus norvegicus), sequence (P04775 whole entry, looked up): as the sequence (P04775 whole entry) above

Structure (SMILES): Cc1ccc2scc(CNS(N)(=O)=O)c2c1
- ED50 (Mus musculus [1]; [31]): > 400 mg/kg
- inhibition (Carbonic anhydrase 2 [2]): 44%
- IC50 (Carbonic anhydrase 2 [3]): 45 µM

Structure (SMILES): NS(=O)(=O)NCc1csc2ccc(Cl)cc12
- Activity (Mus musculus [4]): inactive
- Activity (Mus musculus [5]): inactive
- Activity (Mus musculus [6]): inactive
- IC50 (Carbonic anhydrase 2 [3]): 8.4 µM

Structure (SMILES): NS(=O)(=O)NCc1ccccc1
- Activity (Mus musculus [4]): Active
- Activity (Mus musculus [7]): Active
- Activity (Mus musculus [6]): Active
- ED50 (Mus musculus [8]): 440 mg/kg

Structure (SMILES): NCC1(CC(=O)O)CCCCC1
- inhibition [9]: inactive

Structure (SMILES): NC(=O)N1c2ccccc2C=Cc2ccccc21
- Activity (Rattus norvegicus [10]): Active

Structure (SMILES): Cn1cc(CNS(N)(=O)=O)c2ccccc21
- ED50 (Mus musculus [1]; [31]): 345 mg/kg
- Activity (Mus musculus [4]): Active
- Activity (Mus musculus [5]): inactive
- Activity (Mus musculus [6]): inactive

Structure (SMILES): O=C1NC(=O)C(c2ccccc2)(c2ccccc2)N1 [PHENYTOIN]
- Activity (Rattus norvegicus [11]): Active
- IC50 [12]: 22 µM

Structure (SMILES): CCCC(CCC)C(=O)O [VALPROIC ACID]
- ED50 (Mus musculus [13]): > 200 mg/kg
- Activity (Rattus norvegicus [14]): Active

Structure (SMILES): CCC1(C)CC(=O)NC1=O (stereo not drawn)
- Activity (Rattus norvegicus [11]): inactive

Structure (SMILES): CC(NS(N)(=O)=O)c1csc2ccccc12 (racemic)
- IC50 (Carbonic anhydrase 2 [15]): 130 µM

Structure (SMILES): NS(=O)(=O)NCc1coc2ccccc12
- Activity (Mus musculus [16]): Non-toxic
- ED50 (Mus musculus [1]; [31]): > 400 mg/kg
- Activity (Mus musculus [4]): Active
- Activity (Mus musculus [5]): inactive
- Activity (Mus musculus [6]): inactive

Structure (SMILES): NS(=O)(=O)NCc1c[nH]c2ccccc12
- Activity (Mus musculus [5]): inactive
- IC50 (Carbonic anhydrase 2 [3]): 300 µM

Structure (SMILES): Cc1oc2ccccc2c1CNS(N)(=O)=O
- Activity (Mus musculus [5]): inactive

Structure (SMILES): CC[C@@H](C(N)=O)N1CCCC1=O
- ED50 (Mus musculus [17]; Mus musculus, CF1, ip, 0.25 h, read-out: ED50): > 540 mg/kg

Structure (SMILES): CC1(C)O[C@@H]2[C@@H](CO[C@@]3(COS(N)(=O)=O)OC(C)(C)O[C@@H]23)O1 [TOPIRAMATE]
- ED50 (Mus musculus [17]): >500 mg/kg
- Activity (Mus musculus [18]): inactive
- ED50 (Rattus norvegicus [19]): 6.6 mg/kg
- ED50 (Mus musculus [1]): 43.8 mg/kg
- Activity (Mus musculus [20]): inactive
- Activity (Mus musculus [21]): 0%
- Activity (Mus musculus [22]): inactive
- ED50 (Mus musculus [23]): 4.2 mg/kg
- Activity (Mus musculus [24]): 0%
- Activity (Mus musculus [25]): inactive
- Activity (Mus musculus [26]): inactive
- ED50 (Rattus norvegicus [27]): 53.5 mg/kg
- ED50 (Rattus norvegicus [28]): 6.6 mg/kg
- IC50 [12]: 97 µM
- ED50 (Mus musculus [29]): >500 mg/kg

Structure (SMILES): NS(=O)(=O)NCc1csc2ccc(Br)cc12
- IC50 (Carbonic anhydrase 2 [3]): 100 µM

Structure (SMILES): NS(=O)(=O)NCc1cccc2ccccc12
- ED50 (Mus musculus [1]; [31]): 123 mg/kg

Structure (SMILES): CCCCNS(N)(=O)=O
- Activity (Mus musculus [30]): inactive

Structure (SMILES): NS(=O)(=O)NCc1csc2ccc(F)cc12
- ED50 (Mus musculus [1]; [31]): 231 mg/kg
- Activity (Mus musculus [6]): inactive

Structure (SMILES): Nc1nnc(-c2cccc(Cl)c2Cl)c(N)n1 [LAMOTRIGINE]
- IC50 [12]: 35 µM
